Experimental data: patent US7842721B2, “Composition for treating cancer cells and synthetic method for the same” (Kaohsiung Medical University, priority 2007, dated 2010)
In brackets after ≈: the same amount, converted by molar mass.

Assays:
human cancer cell lines = assay: in vitro cytotoxic activities against several human cancer lines (panel summary); format: cell-based; conditions: for cytotoxic activity against cancer cell lines (in words): especially Hep3B and MDA-MB-231
Method: (§1) Human liver (HepG2 and Hep3B), breast (MCF-7 and MDA-MB-231), and lung (A549) cancer cell lines were propagated in RPMI-1640 medium supplement with 10% (v/v) FBS, 100 U/mL penicillin and 100 µg/mL streptomycin at 37° C. in a humidified atmosphere of 5% CO2 and 95% air. The culturing medium is changed every three days. Upon confluency, cells were subcultured to confluency, and used for experiments. The experimental period is determined according to the aim of experiment.
(§2) Cytotoxicity is measured by the MTT calorimetric method. Cells were seeded at densities of 5,000-10,000 cells/well in 96-well tissue culture plates. On day two, cells are treated with test compounds for another 72 hrs. After drug treatment, attached cells were incubated with MTT (0.5 mg/mL) for 1 hr and subsequently solubilized in DMSO. The absorbency at 550 nm is then measured using a microplate reader. The IC50 is the concentration of agent that reduces the cell viability by 50% under the experimental conditions, and the cytotoxic compound, Doxorubicin, is used as a positive control.
It is known that both the protoapigenone compound and its derivatives synthesized by a chemical method have cytotoxic effect against cancer cells, similar to nature protoapigenone compound extracted from a plant.

MDA-MB-231 = assay: MTT cytotoxicity assay, MDA-MB-231; format: cell-based; conditions: human breast cancer cells, 72 hrs treatment
Method: as §1, §2

A549 = assay: MTT cytotoxicity assay, A549; format: cell-based; conditions: human lung cancer cells, 72 hrs treatment
Method: as §1, §2

MCF-7 = assay: MTT cytotoxicity assay, MCF-7; format: cell-based; conditions: human breast cancer cells, 72 hrs treatment
Method: as §1, §2

HepG2 = assay: MTT cytotoxicity assay, HepG2; format: cell-based, Human; conditions: for IC50 HepG2: human liver cancer cells, MTT, 72 hrs treatment
Method: as §1, §2

Hep3B = assay: MTT cytotoxicity assay, Hep3B; format: cell-based; conditions: human liver cancer cells, 72 hrs treatment
Method: as §1, §2

[1] = system: human cancer cell lines (MCF-7, MDA-MB-231, Hep G2, Hep 3B, A549); conditions: compound derived from Thelypteris torresiana; Planta Medica 71:867-870, 2005; cited from earlier work

**Q.** For O=C1C=CC(O)(c2cc(=O)c3ccccc3o2)C=C1 [Compound 8a, 2-(1-hydroxy-4-oxocyclohexa-2,5-dienyl)-4H-chromen-4-one], which “cytotoxic activity against cancer cell lines (in words)” value (“cytotoxic activity” for short) (human cancer cell lines) is on record?
**A.** significant cytotoxic activity

**Q.** Which results are given for COC1(c2cc(=O)c3ccccc3o2)C=CC(=O)C=C1 [Compound 8b, 1′-methoxyprotoflavonoen]?
**A.** IC50 MDA-MB-231 (MDA-MB-231): 1.47 µg/mL (≈ 5.48 µM); IC50 A549 (A549): >20 µg/mL; IC50 MCF-7 (MCF-7): 2.14 µg/mL (≈ 7.98 µM); IC50 HepG2 (HepG2): 10.95 µg/mL (≈ 40.8 µM); IC50 Hep3B (Hep3B): 1.45 µg/mL (≈ 5.41 µM)

**Q.** For O=C1C=CC(O)(c2cc(=O)c3c(O)cccc3o2)C=C1 [Compound 10a, 2-(1-hydroxy-4-oxocyclohexa-2,5-dienyl)-5-hydroxy-4H-chromen-4-one], which “cytotoxic activity” value (human cancer cell lines) is on record?
**A.** significant cytotoxic activity

**Q.** Which “IC50 MDA-MB-231” value (MDA-MB-231) does the source give for COC1(c2cc(=O)c3c(C)cccc3o2)C=CC(=O)C=C1 [Compound 10b, 1′-methoxy-5-methylprotoflavonone] here?
**A.** 0.54 µg/mL (≈ 1.91 µM)

**Q.** What about the “IC50 A549” value (A549) of the same molecule?
**A.** 16.36 µg/mL (≈ 58 µM)

**Q.** And the “IC50 MCF-7” value (MCF-7)?
**A.** 1.55 µg/mL (≈ 5.49 µM)

**Q.** What about the “IC50 HepG2” value (HepG2) of the same molecule?
**A.** 7.64 µg/mL (≈ 27.1 µM)

**Q.** What about the “IC50 Hep3B” value (Hep3B) of the same molecule?
**A.** 0.66 µg/mL (≈ 2.34 µM)

**Q.** With O=C1C=CC(O)(c2cc(=O)c3c(ccc4ccccc43)o2)C=C1 [Compound 15a, 3-(1-hydroxy-4-oxocyclohexa-2,5-dienyl)-1H-benzo[f]chromen-1-one] as the molecule, how does the “cytotoxic activity” value (human cancer cell lines) read?
**A.** significant cytotoxic activity

**Q.** With COc1cc(O)c2c(=O)cc(C3(O)C=CC(=O)C=C3)oc2c1 [Compound 18a, 5-hydroxy-2-(1-hydroxy-4-oxocyclohexa-2,5-dienyl)-7-methoxy-4H-chromen-4-one] as the molecule, how does the “cytotoxic activity” value (human cancer cell lines) read?
**A.** significant cytotoxic activity

**Q.** And the “potency against all five cancer cell lines, among the derivatives (in words)” value (human cancer cell lines; five cancer cell lines)?
**A.** highest potency

**Q.** And the “activity against the HepG2 human liver cancer cell line (in words)” value (HepG2; compared with most analogs)?
**A.** significantly enhanced activity

**Q.** For O=C1C=CC(O)(c2cc(=O)c3c(O)cc(O)cc3o2)C=C1 [protoapigenone], which “cytotoxic activities to human cancer cell lines (in words)” value [1] is on record?
**A.** strong cytotoxic activities
